IC50 and Ki data for 3 molecules are collected here from patent publication US20090209552A1, “Organic Compounds” (Novartis AG, priority 2006, published 2009).

Assay [1] concerns the target T1, human CRTh2 (Homo sapiens, UniProt Q9Y5Y4).
T1 sequence (Q9Y5Y4 1-395): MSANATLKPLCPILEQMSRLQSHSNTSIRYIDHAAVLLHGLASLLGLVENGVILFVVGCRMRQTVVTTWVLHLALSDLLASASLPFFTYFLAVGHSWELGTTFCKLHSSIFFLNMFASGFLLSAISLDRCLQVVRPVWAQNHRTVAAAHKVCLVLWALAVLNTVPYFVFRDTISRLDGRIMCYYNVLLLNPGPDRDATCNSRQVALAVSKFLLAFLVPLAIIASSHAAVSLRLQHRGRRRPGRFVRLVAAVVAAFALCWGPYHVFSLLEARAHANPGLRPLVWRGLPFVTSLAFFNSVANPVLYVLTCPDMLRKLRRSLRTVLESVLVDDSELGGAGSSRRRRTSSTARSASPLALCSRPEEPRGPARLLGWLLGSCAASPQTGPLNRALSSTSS
Briefly: CRTH2 cAMP functional assay in CHO.K1-CRTh2 cells. Details: expressed in transfected cells; host or cells: CHO.K1 (CHO.K1-CRTh2), whole cells. It counts as cell-based. The note with it: inhibition of PGD2-mediated attenuation of forskolin-induced cAMP accumulation in CHO.K1-CRTh2 cells. On the procedure:
where S is the concentration of radioligand and Kd is the dissociation constant. CRTH2 cAMP Functional Assay Protocol
This assay is conducted in CHO.K1-CRTh2 cells. cAMP is generated in the cell by stimulating cells with 5 μM forskolin, an adenylate cyclase activator. PGD2 is added to activate the CRTh2 receptor which results in the attenuation of the forskolin-induced cAMP accumulation. Potential CRTh2 antagonists are tested for their ability to inhibit the PGD2-mediated attenuation of the forskolin-induced cAMP accumulation in CHO.K1-CRTh2 cells.
For each concentration value on the dose-response curve, test compounds are prepared in assay stimulation buffer (HBSS, 5 mM HEPES, 10 μM IBMX±0.1% human serum albumin) containing DMSO (3% vol/vol) and 5 μL/well is added to an assay plate (384 well white optiplate).
CHO.K1-CRTh2 cultured in tissue culture flasks are washed with PBS and harvested with dissociation buffer. Cells are washed with PBS and re-suspended in stimulation buffer to a concentration of 0.4×10^6/mL and added to the assay plate (10 μL/well).
The assay plate is incubated at room temperature on a shaker for 15 minutes.
A mix of agonist (10 nM Prostaglandin D and 5 μM forskolin is prepared in assay stimulation buffer and added to the assay plate (5 μL/well).
In addition, a cAMP standard is serially diluted in assay stimulation buffer and added to separate empty wells on the assay plate (20 μL/well). The cAMP standard allows for the quantification of cAMP generated in CHO.K1-CRTH2 cells.
The assay plate is incubated at room temperature on a shaker for 60 minutes. […]
The assay plate is sealed with Topseal-S™ and incubated in the dark at room temperature on a shaker for 45 minutes. The plate is then counted using a Packard Fusion™ instrument. […]
In general terms: Changes in cAMP serve as a functional read-out for many G protein-coupled receptors.

The target of assay [2] is T1, human CRTh2. Briefly: Filtration binding assay ([3H]-PGD2 competition on CHO.K1-CRTh2 membranes). Details: expressed in transfected cells; host or cells: CHO.K1 (CHO.K1-CRTh2), membranes. As to conditions: [3H]-PGD2 2.5 nM, Cheng-Prussoff. On the procedure:
The binding of CRTh2 modulators is determined using membranes prepared from human CRTh2-expressing Chinese Hamster Ovary cells (CHO.K1-CRTh2). To produce cell membranes CHO.K1-CRTh2 cells cultured in roller bottles are harvested using cell dissociation buffer (Invitrogen). The cells are pelleted by centrifugation (167 g, 5 min). The cell pellet is incubated in hypotonic buffer (15 mM Tris-OH, 2 mM MgCl2, 0.3 mM EDTA, 1 mM EGTA, 1× Complete™ tablet) at 4° C. for 30 minutes. At 4° C. cells are homogenized using a Polytron®) (IKA Ultra Turrax T25) for 5 bursts of 1 second. The homogenate is centrifuged (Beckman Optima TM TL Ultracentrifuge, 48000 g, 30 minutes at 4° C.). The supernatant is discarded and the membrane pellet re-suspended in homogenisation buffer (75 mM Tris-OH, 12.5 mM MgCl2, 0.3 mM EDTA, 1 mM EGTA, 250 mM Sucrose, 1× Complete™ tablet. Membrane preparations are aliquoted and stored at […]. The protein content is estimated using Bradford Protein Assay Dye (Bio Rad).
The binding of [^3H]-PGD2 (157 Ci/mmol) to CHO.K1-CRTh2 membranes is determined in the absence (total binding) and presence (non-specific binding) of unlabelled PGD2 (1 μM). Subtraction of the cpm (counts per minute) of [^3H]-PGD2 binding in presence of excess unlabelled PGD2 from that observed in the absence of excess unlabelled PGD2 is defined as specific binding. Active CRTh2 antagonists are able to compete with [^3H]-PGD2 for binding to the CRTh2 receptor and are identified in a decrease in the number of cpm bound. […]
The plates are incubated at room temperature on a shaker for 1 hour, and then harvested (Tomtec Harvester 9600) onto GF/C filter plates using wash buffer (10 mM HEPES-KOH, pH 7.4). […] Plates are then counted using a Packard Top Count instrument, […]
Ki (dissociation constant for the inhibition) values for the CRTh2 antagonists are reported. Ki values are determined using Sigma Plots software, using the Cheng-Prussoff equation. […]

One may read the IC50 as the concentration at which inhibition is half-maximal. A higher IC50 goes with a need for much substance. Usually Ki stands for a dissociation constant, usually derived from enzyme kinetics or from competition with a known ligand. A high value points to weaker binding. In assay [1], `N#Cc1cn(CC(=O)O)cc1-c1cc(C(F)(F)F)cc(S(=O)(=O)N2CCN(Cc3ccncc3)CC2)c1` [Example 3, {3-Cyano-4-[3-(4-pyridin-4-ylmethyl-piperazine-1-sulfonyl)-5-trifluoromethyl-phenyl]-pyrrol-1-yl}-acetic acid] registered an IC50 of 2 nM. The molecule further displayed a Ki in assay [2] of 17 nM.

In assay [1], `N#Cc1cn(CC(=O)O)cc1-c1cc(Cl)cc(S(=O)(=O)N2CCN(c3ccccc3F)CC2)c1` [Example 9, (3-{3-Chloro-5-[4-(2-fluoro-phenyl)-piperazine-1-sulfonyl]-phenyl}-4-cyano-pyrrol-1-yl)-acetic acid] gave an IC50 of 26 nM. In assay [2], this molecule returned a Ki of 49 nM.

As to `Cc1ccc(CNS(=O)(=O)c2cc(-c3cn(CC(=O)O)cc3C#N)cc(C(F)(F)F)c2)o1` [Example 8, (3-Cyano-4-{3-[(5-methyl-furan-2-ylmethyl)-sulfamoyl]-5-trifluoromethyl-phenyl}-pyrrol-1-yl)-acetic acid], the IC50 in assay [1] worked out at 5 nM. In assay [2], this molecule showed a Ki of 2 nM.
